Data from the NIST ThermoML archive (doi:10.1016/j.jct.2012.10.023).

Experiment: xn = mol fraction of the nth substance listed
Conditions: 101 kPa, Liquid; for speed of sound: Sing-around technique in a fixed-path interferometer; for mass density: Vibrating tube method

CCCCCCCCCO [nonan-1-ol] + Cc1ccccc1C
Conditions | mass density, 298.15 K [kg/m3] | mass density, 308.15 K [kg/m3] | speed of sound, 298.15 K [m/s] | speed of sound, 308.15 K [m/s]
x2 = 0 | 824.271 | 817.362 | 1363.1 | 1330.4
x2 = 0.0653 | 826.644 | 819.637 | 1361.7 | 1328.2
x2 = 0.136 | 829.283 | 822.169 | 1359.7 | 1325.5
x2 = 0.1773 | 830.871 | 823.694 | 1358.3 | 1323.7
x2 = 0.2281 | 832.869 | 825.612 | 1356.5 | 1321.4
x2 = 0.2834 | 835.111 | 827.766 | 1354.3 | 1318.8
x2 = 0.3463 | 837.756 | 830.309 | 1351.8 | 1315.8
x2 = 0.4203 | 841.015 | 833.448 | 1348.8 | 1312.5
x2 = 0.4761 | 843.593 | 835.935 | 1346.7 | 1310
x2 = 0.5478 | 847.079 | 839.304 | 1344.3 | 1307.3
x2 = 0.6327 | 851.482 | 843.569 | 1342.2 | 1304.7
x2 = 0.7121 | 855.922 | 847.884 | 1341.1 | 1303
x2 = 0.7974 | 861.062 | 852.892 | 1341 | 1302.3
x2 = 0.8695 | 865.751 | 857.475 | 1342.1 | 1302.8
x2 = 0.9287 | 869.902 | 861.543 | 1344 | 1304.3

CCCCCCCCCO [nonan-1-ol] + Cc1ccc(C)cc1
Conditions | mass density, 298.15 K [kg/m3] | mass density, 308.15 K [kg/m3] | speed of sound, 298.15 K [m/s] | speed of sound, 308.15 K [m/s]
x2 = 0 | 824.271 | 817.362 | 1363.1 | 1330.4
x2 = 0.0611 | 825.819 | 818.805 | 1360.1 | 1326.3
x2 = 0.1108 | 827.09 | 819.99 | 1357.1 | 1322.6
x2 = 0.1652 | 828.491 | 821.297 | 1353.4 | 1318.2
x2 = 0.226 | 830.074 | 822.774 | 1349 | 1313.3
x2 = 0.2932 | 831.854 | 824.435 | 1343.9 | 1307.5
x2 = 0.3651 | 833.819 | 826.271 | 1338.4 | 1301.2
x2 = 0.4248 | 835.506 | 827.851 | 1333.5 | 1296.1
x2 = 0.5023 | 837.784 | 829.988 | 1327.5 | 1289.7
x2 = 0.558 | 839.499 | 831.601 | 1323.3 | 1285.2
x2 = 0.6359 | 842.032 | 833.99 | 1318.1 | 1279.6
x2 = 0.7123 | 844.678 | 836.494 | 1313.8 | 1274.8
x2 = 0.7744 | 846.969 | 838.668 | 1311 | 1271.7
x2 = 0.8514 | 850.015 | 841.569 | 1308.9 | 1269
x2 = 0.9286 | 853.306 | 844.715 | 1308 | 1268
